Laboratory results as given in US20150099003A1, “Topiramate Sustained-Release Pharmaceutical Composition, Method for Preparing Same, and Uses Thereof” (Institute of Pharmacology and Toxicology Academy of …, priority 2012, published 2015).

How the values were obtained:
human plasma protein = conditions: plasma concentration range of 0.5-250 μg/ml; decreases with the increase of plasma concentration; cited from earlier work
[1] = cited from earlier work
[2] = Release rate in different dissolution media (artificial gastric fluid, water, artificial intestinal fluid); assay type: physicochemical; conditions: degradation reaction
Experimental: In order to verify whether acidic, basic solvent media would influence the release rate of the sustained-release pellets of the present invention, 0.1 mol/L HCl (pH1.2) was prepared as artificial gastric fluid, […] phosphate buffer (pH6.8) was prepared as artificial intestinal fluid, and these media and water (500 ml) were used as release media, rotation speed was 100 rpm, 37° C. Samples (5 ml, supplemented with equivalent volume of media at the meantime) were taken at 1, 2, 4, 8, 12, 16, 20, 24 h, filtrated, and the subsequent filtrates were used as test solutions. High performance liquid chromatography (Appendix V D of Part II of Chinese Pharmacopoeia, 2010 Edition) was used, octylsilane-bonded silica gel was used as packing agent, 50% methanol was mobile phase, differential refractive detector was used, flow rate was 1.5 ml per minute. 200 μl of test solution was taken, injected in liquid chromatograph, the peak area of topiramate as main drug was recorded; topiramate was separately taken as control sample and measured by the same method, and accumulative release percentages of drug at different time points were calculated by external standard method.

[3] = cited from earlier work; remark: listed apart in the source

CC1(C)O[C@@H]2[C@@H](CO[C@@]3(COS(N)(=O)=O)OC(C)(C)O[C@@H]23)O1 [Topiramate, 2,3,4,5-bis-O-(1-methylethylene)-β-D-fructopyranose sulfamate]
Human plasma protein binding ratio (human plasma protein): 15-41% | Plasma half-life ([1]; human, in vivo): 19 to 25 h | Clearance for oral administration ([1]; oral administration): 22 to 36 mL/min | Stability of topiramate in pH1.2 artificial gastric fluid [2]: unstable | Solubility in organic solvents ([3]; acetone, chloroform, dimethylsulfoxide and ethanol): freely soluble | Solubility in alkaline solution ([3]; alkaline solution having pH of 9-10 such as sodium hydroxide or sodium phosphate solutions): very freely soluble | pH value of saturated solution ([3]; saturated solution): 6.3 | Solubility in water ([3]; water, room temperature): about 9.8 mg/mL | Solubility in water (descriptive) ([3]; water, room temperature): very slightly soluble
